Reference: ChEMBL document CHEMBL4229455, “Synthesis and anticancer activity of novel bisindolylhydroxymaleimide derivatives with potent GSK-3 kinase inhibition” (Bioorg Med Chem, 2018)

Experiments:
Assay type in all cases: functional
CAKI-1 [1] = assay: Cytotoxicity against human Caki1 cells assessed as cell growth at 100 uM after 48 hrs by SRB assay relative to control; details: CAKI-1, 48 h, read-out: Activity
T47D = assay: Cytotoxicity against human T47D cells assessed as cell growth at 0.01 uM after 48 hrs by SRB assay relative to control; details: read-out: Activity
NCI-H226 = assay: Cytotoxicity against human NCI-H226 cells assessed as cell growth at 0.1 uM after 48 hrs by SRB assay relative to control; details: NCI-H226, 48 h, read-out: Activity
HCC 2998 = assay: Cytotoxicity against human HCC2998 cells assessed as cell growth at 100 uM after 48 hrs by SRB assay relative to control; details: HCC 2998, 48 h, read-out: Activity
OVCAR-3 = assay: Cytotoxicity against human OVCAR3 cells assessed as cell growth at 0.1 uM after 48 hrs by SRB assay relative to control; details: OVCAR-3, 48 h, read-out: Activity
HCT-116 [2] = assay: Cytotoxicity against human HCT116 cells assessed as cell growth at 0.01 uM after 48 hrs by SRB assay relative to control; details: HCT-116, 48 h, read-out: Activity
NCI-H522 [3] = assay: Cytotoxicity against human NCI-H522 cells assessed as cell growth at 0.1 uM after 48 hrs by SRB assay relative to control; details: NCI-H522, 48 h, read-out: Activity
SK-MEL-2 = assay: Cytotoxicity against human SK-MEL-2 cells after 48 hrs by SRB assay; details: SK-MEL-2, 48 h
IGROV-1 = assay: Cytotoxicity against human IGROV1 cells assessed as cell growth at 0.1 uM after 48 hrs by SRB assay relative to control; details: IGROV-1, 48 h, read-out: Activity
A549 = assay: Cytotoxicity against human A549 cells assessed as cell growth at 0.1 uM after 48 hrs by SRB assay relative to control; details: A549, 48 h, read-out: Activity
HOP-62 = assay: Cytotoxicity against human HOP62 cells assessed as cell growth at 0.01 uM after 48 hrs by SRB assay relative to control; details: HOP-62, 48 h, read-out: Activity
NCI-H522 [4] = assay: Cytotoxicity against human NCI-H522 cells assessed as cell growth at 1 uM after 48 hrs by SRB assay relative to control; details: NCI-H522, 48 h, read-out: Activity
HCT-15 = assay: Cytotoxicity against human HCT15 cells assessed as cell growth at 1 uM after 48 hrs by SRB assay relative to control; details: HCT-15, 48 h, read-out: Activity
SW-620 = assay: Cytotoxicity against human SW620 cells assessed as cell growth at 100 uM after 48 hrs by SRB assay relative to control; details: SW-620, 48 h, read-out: Activity
CAKI-1 [5] = assay: Cytotoxicity against human Caki1 cells assessed as cell growth at 0.1 uM after 48 hrs by SRB assay relative to control; details: CAKI-1, 48 h, read-out: Activity
MCF7 = assay: Cytotoxicity against human MCF7 cells assessed as cell growth at 0.1 uM after 48 hrs by SRB assay relative to control; details: MCF7, 48 h, read-out: Activity
UACC-257 = assay: Cytotoxicity against human UACC257 cells assessed as cell growth at 0.1 uM after 48 hrs by SRB assay relative to control; details: UACC-257, 48 h, read-out: Activity
SNB-75 [6] = assay: Cytotoxicity against human SNB75 cells assessed as cell growth at 1 uM after 48 hrs by SRB assay relative to control; details: SNB-75, 48 h, read-out: Activity
ACHN = assay: Cytotoxicity against human ACHN cells after 48 hrs by SRB assay; details: for CC50: read-out: LC50 (the source's name)
RXF 393 = assay: Cytotoxicity against human RXF393 cells assessed as cell growth at 0.01 uM after 48 hrs by SRB assay relative to control; details: RXF 393, 48 h, read-out: Activity
CAKI-1 [7] = assay: Cytotoxicity against human Caki1 cells assessed as cell growth at 0.01 uM after 48 hrs by SRB assay relative to control; details: CAKI-1, 48 h, read-out: Activity
SK-MEL-5 [8] = assay: Cytotoxicity against human SK-MEL-5 cells assessed as cell growth at 1 uM after 48 hrs by SRB assay relative to control; details: SK-MEL-5, 48 h, read-out: Activity
A498 = assay: Cytotoxicity against human A498 cells assessed as cell growth at 1 uM after 48 hrs by SRB assay relative to control; details: A498, 48 h, read-out: Activity
SK-MEL-5 [9] = assay: Cytotoxicity against human SK-MEL-5 cells assessed as cell growth at 0.1 uM after 48 hrs by SRB assay relative to control; details: SK-MEL-5, 48 h, read-out: Activity
SF-539 [10] = assay: Cytotoxicity against human SF539 cells assessed as cell growth at 1 uM after 48 hrs by SRB assay relative to control; details: SF-539, 48 h, read-out: Activity
TK-10 [11] = assay: Cytotoxicity against human TK10 cells assessed as cell growth at 100 uM after 48 hrs by SRB assay relative to control; details: TK-10, 48 h, read-out: Activity
K562 = assay: Cytotoxicity against human K562 cells after 48 hrs by SRB assay; details: K562, 48 h
SK-OV-3 = assay: Cytotoxicity against human SKOV3 cells assessed as cell growth at 0.1 uM after 48 hrs by SRB assay relative to control; details: SK-OV-3, 48 h, read-out: Activity
SNB-75 [12] = assay: Cytotoxicity against human SNB75 cells after 48 hrs by SRB assay; details: SNB-75, 48 h; for CC50: read-out: LC50 (the source's name)
SK-MEL-5 [13] = assay: Cytotoxicity against human SK-MEL-5 cells assessed as cell growth at 0.01 uM after 48 hrs by SRB assay relative to control; details: SK-MEL-5, 48 h, read-out: Activity
HCT-116 [14] = assay: Cytotoxicity against human HCT116 cells assessed as cell growth at 100 uM after 48 hrs by SRB assay relative to control; details: HCT-116, 48 h, read-out: Activity
SNB-75 [15] = assay: Cytotoxicity against human SNB75 cells assessed as cell growth at 0.01 uM after 48 hrs by SRB assay relative to control; details: SNB-75, 48 h, read-out: Activity
SR = assay: Cytotoxicity against human SR cells assessed as cell growth at 0.01 uM after 48 hrs by SRB assay relative to control; details: read-out: Activity
BT-549 = assay: Cytotoxicity against human BT549 cells assessed as cell growth at 0.1 uM after 48 hrs by SRB assay relative to control; details: BT-549, 48 h, read-out: Activity
SF-539 [16] = assay: Cytotoxicity against human SF539 cells assessed as cell growth at 0.01 uM after 48 hrs by SRB assay relative to control; details: SF-539, 48 h, read-out: Activity
TK-10 [17] = assay: Cytotoxicity against human TK10 cells assessed as cell growth at 0.1 uM after 48 hrs by SRB assay relative to control; details: TK-10, 48 h, read-out: Activity
SNB-75 [18] = assay: Cytotoxicity against human SNB75 cells assessed as cell growth at 100 uM after 48 hrs by SRB assay relative to control; details: SNB-75, 48 h, read-out: Activity

SMILES: N#CCCCCCn1cc(C2=C(c3cn(CCCCCC#N)c4ccccc34)C(=O)N(O)C2=O)c2ccccc21
- growth at 100 µM (CAKI-1 [1]): 16%
- growth at 0.01 µM (T47D): 99%
- growth at 0.1 µM (NCI-H226): 96%
- growth at 100 µM (HCC 2998): 1%
- growth at 0.1 µM (OVCAR-3): 101%
- growth at 0.01 µM (HCT-116 [2]): 102%
- growth at 0.1 µM (NCI-H522 [3]): 86%
- GI50 (SK-MEL-2): 3.38 µM
- LC50 (concentration killing 50% of cells) (SK-MEL-2): > 100 µM
- TGI (SK-MEL-2): 14.9 µM
- growth at 0.1 µM (IGROV-1): 101%
- growth at 0.1 µM (A549): 102%
- growth at 0.01 µM (HOP-62): 94%
- growth at 1 µM (NCI-H522 [4]): 85%
- growth at 1 µM (HCT-15): 92%
- growth at 100 µM (SW-620): 7%
- growth at 0.1 µM (CAKI-1 [5]): 95%
- growth at 0.1 µM (MCF7): 85%
- growth at 0.1 µM (UACC-257): 100%
- growth at 1 µM (SNB-75 [6]): 80%
- GI50 (ACHN): 8.04 µM
- TGI (ACHN): > 100 µM
- CC50 (ACHN): > 100 µM
- growth at 0.01 µM (RXF 393): 96%
- growth at 0.01 µM (CAKI-1 [7]): 98%
- growth at 1 µM (SK-MEL-5 [8]): 92%
- growth at 1 µM (A498): 70%
- growth at 0.1 µM (SK-MEL-5 [9]): 99%
- growth at 1 µM (SF-539 [10]): 93%
- growth at 100 µM (TK-10 [11]): 12%
- GI50 (K562): 3.59 µM
- LC50 (concentration killing 50% of cells) (K562): > 100 µM
- TGI (K562): > 100 µM
- growth at 0.1 µM (SK-OV-3): 88%
- GI50 (SNB-75 [12]): 2.84 µM
- TGI (SNB-75 [12]): 20 µM
- CC50 (SNB-75 [12]): > 100 µM
- growth at 0.01 µM (SK-MEL-5 [13]): 99%
- growth at 100 µM (HCT-116 [14]): -15%
- growth at 0.01 µM (SNB-75 [15]): 79%
- growth at 0.01 µM (SR): 84%
- growth at 0.1 µM (BT-549): 92%
- growth at 0.01 µM (SF-539 [16]): 94%
- growth at 0.1 µM (TK-10 [17]): 95%
- growth at 100 µM (SNB-75 [18]): -32%

SMILES: Cn1cc(C2=C(c3cn(C)c4ncccc34)C(=O)NC2=O)c2ccccc21
- growth at 100 µM (CAKI-1 [1]): -10%
- growth at 0.01 µM (T47D): 89%
- growth at 0.1 µM (NCI-H226): 91%
- growth at 100 µM (HCC 2998): -37%
- growth at 0.1 µM (OVCAR-3): 111%
- growth at 0.01 µM (HCT-116 [2]): 106%
- growth at 0.1 µM (NCI-H522 [3]): 98%
- GI50 (SK-MEL-2): 3.2 µM
- TGI (SK-MEL-2): 8.28 µM
- growth at 0.1 µM (IGROV-1): 97%
- growth at 0.1 µM (A549): 94%
- growth at 0.01 µM (HOP-62): 110%
- growth at 1 µM (NCI-H522 [4]): 93%
- growth at 1 µM (HCT-15): 84%
- growth at 100 µM (SW-620): -19%
- growth at 0.1 µM (CAKI-1 [5]): 86%
- growth at 0.1 µM (MCF7): 87%
- growth at 0.1 µM (UACC-257): 103%
- growth at 1 µM (SNB-75 [6]): 32%
- GI50 (ACHN): 2.93 µM
- TGI (ACHN): 26.2 µM
- CC50 (ACHN): > 100 µM
- growth at 0.01 µM (RXF 393): 98%
- growth at 0.01 µM (CAKI-1 [7]): 97%
- growth at 1 µM (SK-MEL-5 [8]): 89%
- growth at 1 µM (A498): 27%
- growth at 0.1 µM (SK-MEL-5 [9]): 101%
- growth at 1 µM (SF-539 [10]): 86%
- growth at 100 µM (TK-10 [11]): -18%
- GI50 (K562): 2.74 µM
- TGI (K562): > 100 µM
- growth at 0.1 µM (SK-OV-3): 102%
- GI50 (SNB-75 [12]): 0.291 µM
- TGI (SNB-75 [12]): 7.97 µM
- CC50 (SNB-75 [12]): 94.6 µM
- growth at 0.01 µM (SK-MEL-5 [13]): 102%
- growth at 100 µM (HCT-116 [14]): -17%
- growth at 0.01 µM (SNB-75 [15]): 83%
- growth at 0.01 µM (SR): 89%
- growth at 0.1 µM (BT-549): 98%
- growth at 0.01 µM (SF-539 [16]): 99%
- growth at 0.1 µM (TK-10 [17]): 105%
- growth at 100 µM (SNB-75 [18]): -51%
